The text below walks through data of US11596639B2, “Substituted indole Mcl-1 inhibitors” (Vanderbilt University, priority 2016, dated 2023).

The Ki is the dissociation constant of the complex between target and ligand, obtained from inhibition or displacement.

For one experiment, the target named is Mcl-1 (Homo sapiens (Human), UniProt Q07820). Put plainly: Fluorescence polarization anisotropy (FPA) competition assay, FITC-Bak or FITC-Bim BH3 peptide. As to conditions: read-out: Ki for Inhibition of Mcl-1 by FPA assay. Type of experiment: binding.
Chain of Mcl-1 (Q07820 172-327): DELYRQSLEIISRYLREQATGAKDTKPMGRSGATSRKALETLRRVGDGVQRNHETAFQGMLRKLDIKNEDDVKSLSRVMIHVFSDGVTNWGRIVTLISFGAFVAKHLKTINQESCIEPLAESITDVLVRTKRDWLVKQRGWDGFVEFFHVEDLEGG
For experiment [1], the system named is H929 human cancer cell lines. Put plainly: Cellular viability / proliferation (Cell TiterGlo, 72 h). Type of experiment: cell-based. As to conditions: Homo sapiens, NCI-H929, 72 h, read-out: GI50 on cellular proliferation of H929 human cancer cell lines, H929 cells, 72 h, Cell TiterGlo, 10% FBS. An outline of the steps:
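Cells were seeded at 1,000 cells/well in medium with 10% FBS and dosed 24 h later with a 2-fold serial dilution of compound (top concentration 50 μM, final DMSO <1%).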
A general note: ATP-based viability assays read luminescence as a measure of living cells.

For `Cc1cc(OCCCc2c3n(c4c(-c5c(C)nn(C)c5C)c(Cl)ccc24)[C@H](C)CN(c2cc(C(=O)O)cc4c2OCO4)C3=O)cc(C)c1Cl` [Example 33, (R)-7-(7-chloro-10-(3-(4-chloro-3,5-dimethylphenoxy)propyl)-4-methyl-1-oxo-6-(1,3,5-trimethyl-1H-pyrazol-4-yl)-3,4-dihydropyrazino[1,2-a]indol-2(1H)-yl)benzo[d][1,3]dioxole-5-carboxylic acid], the Ki on Mcl-1 was less than 1 nM. Also, in experiment [1], the GI50 stood at 650 nM.
With `Cc1cc(OCCCc2c3n(c4c(-c5c(C)nn(C)c5C)c(Cl)ccc24)CCCN(c2cc(C(=O)O)cc4nn(C)cc24)C3=O)cc(C)c1Cl` [Example 36, 4-[8-Chloro-11-[3-(4-chloro-3,5-dimethyl-phenoxy)propyl]-1-oxo-7-(1,3,5-trimethylpyrazol-4-yl)-4,5-dihydro-3H-[1,4]diazepino[1,2-a]indol-2-yl]-2-methyl-indazole-6-carboxylic acid], on Mcl-1, the Ki is less than 1 nM. The GI50 in experiment [1] amounted to 2600 nM.
The like results for `Cc1cc(OCCCc2c3n(c4c(-c5c(C)nn(C)c5C)c(Cl)ccc24)CCCN(c2nc(C(=O)O)n[nH]2)C3=O)cc(C)c1Cl` [Example 37, 5-(8-Chloro-11-(3-(4-chloro-3,5-dimethylphenoxy)propyl)-1-oxo-7-(1,3,5-trimethyl-1H-pyrazol-4-yl)-4,5-dihydro-1H-[1,4]diazepino[1,2-a]indol-2(3H)-yl)-1H-1,2,4-triazole-3-carboxylic acid] were, in that order, 3 nM and 1800 nM.
Taken in the same sequence, the figures for `CCn1ncc2c(C(=O)O)cc(N3CCCn4c(c(CCCOc5cc(C)c(Cl)c(C)c5)c5ccc(Cl)c(-c6c(C)nn(C)c6C)c54)C3=O)cc21` [Example 39, 6-[8-chloro-11-[3-(4-chloro-3,5-dimethyl-phenoxy)propyl]-1-oxo-7-(1,3,5-trimethylpyrazol-4-yl)-4,5-dihydro-3H-[1,4]diazepino[1,2-a]indol-2-yl]-1-ethyl-indazole-4-carboxylic acid] were 1.1 nM and 920 nM.
Taken in the same sequence, the figures for `CC[C@@H]1Cn2c(c(CCCOc3cc(C)c(Cl)c(C)c3)c3ccc(Cl)c(-c4c(C)nn(C)c4C)c32)C(=O)N1c1cc(C(=O)O)c2c(ccn2C)c1` [Example 41, (R)-5-(7-chloro-10-(3-(4-chloro-3,5-dimethylphenoxy)propyl)-3-ethyl-1-oxo-6-(1,3,5-trimethyl-1H-pyrazol-4-yl)-3,4-dihydropyrazino[1,2-a]indol-2(1H)-yl)-1-methyl-1H-indole-7-carboxylic acid] were 1.8 nM and 1200 nM.
As to `Cc1cc(OCCCc2c3n(c4c(-c5c(C)nn(C)c5C)c(Cl)ccc24)CCCN(c2cc(C(=O)O)c4cn[nH]c4c2)C3=O)cc(C)c1Cl` [Example 44, 6-[8-chloro-11-[3-(4-chloro-3,5-dimethyl-phenoxy)propyl]-1-oxo-7-(1,3,5-trimethylpyrazol-4-yl)-4,5-dihydro-3H-[1,4]diazepino[1,2-a]indol-2-yl]-1H-indazole-4-carboxylic acid], the inhibition constant (Ki) at Mcl-1 is less than 1 nM. In experiment [1], the GI50 turned out to be 14000 nM.
Taken in the same sequence, the figures for `Cc1cc(OCCCc2c3n(c4c(-c5c(C)nn(C)c5C)c(Cl)ccc24)CCCN(c2cc(C(=O)O)cc4c2cnn4C)C3=O)cc(C)c1Cl` [Example 45, 4-[8-chloro-11-[3-(4-chloro-3,5-dimethyl-phenoxy)propyl]-1-oxo-7-(1,3,5-trimethylpyrazol-4-yl)-4,5-dihydro-3H-[1,4]diazepino[1,2-a]indol-2-yl]-1-methyl-indazole-6-carboxylic acid] were 1.7 nM and 3800 nM.
The like results for `Cc1cc(OCCCc2c3n(c4c(-c5c(C)nn(C)c5C)c(Cl)ccc24)[C@H](C)CN(c2nn(C)c4cc(C(=O)O)ccc24)C3=O)cc(C)c1Cl` [Example 48, (R)-3-(7-chloro-10-(3-(4-chloro-3,5-dimethylphenoxy)propyl)-4-methyl-1-oxo-6-(1,3,5-trimethyl-1H-pyrazol-4-yl)-3,4-dihydropyrazino[1,2-a]indol-2(1H)-yl)-1-methyl-1H-indazole-6-carboxylic acid] were, in that order, less than 1 nM and 800 nM.
Taken in the same sequence, the figures for `Cc1cc(OCCCc2c3n(c4c(-c5c(C)nn(C)c5C)c(Cl)ccc24)CCCN(c2nn(CCN4CCOCC4)c4cc(C(=O)O)ccc24)C3=O)cc(C)c1Cl` [Example 49, 3-(8-chloro-11-(3-(4-chloro-3,5-dimethylphenoxy)propyl)-1-oxo-7-(1,3,5-trimethyl-1H-pyrazol-4-yl)-4,5-dihydro-1H-[1,4]diazepino[1,2-a]indol-2(3H)-yl)-1-(2-morpholinoethyl)-1H-indazole-6-carboxylic acid] were less than 1 nM and 2600 nM.
`Cc1cc(OCCCc2c3n(c4c(-c5c(C)nn(C)c5C)c(Cl)ccc24)[C@H](C)CN(c2nn(CCN4CCOCC4)c4cc(C(=O)O)ccc24)C3=O)cc(C)c1Cl` [Example 50, (R)-3-(7-chloro-10-(3-(4-chloro-3,5-dimethylphenoxy)propyl)-4-methyl-1-oxo-6-(1,3,5-trimethyl-1H-pyrazol-4-yl)-3,4-dihydropyrazino[1,2-a]indol-2(1H)-yl)-1-(2-morpholinoethyl)-1H-indazole-6-carboxylic acid]: on Mcl-1, the inhibition constant Ki is less than 1 nM. In experiment [1], the GI50 was 710 nM.
Taken in the same sequence, the figures for `Cc1cc(OCCCc2c3n(c4c(-c5c(C)nn(C)c5C)c(Cl)ccc24)[C@H](C)CN(c2ccc(C(=O)O)c4c2ccn4C)C3=O)cc(C)c1Cl` [Example 51, (R)-4-(7-chloro-10-(3-(4-chloro-3,5-dimethylphenoxy)propyl)-4-methyl-1-oxo-6-(1,3,5-trimethyl-1H-pyrazol-4-yl)-3,4-dihydropyrazino[1,2-a]indol-2(1H)-yl)-1-methyl-1H-indole-7-carboxylic acid] were less than 1 nM and 1500 nM.
Regarding `Cc1cc(OCCCc2c3n(c4c(-c5c(C)nn(C)c5C)c(Cl)ccc24)[C@H](C)CN(c2ccc(C(=O)O)c4ccn(C)c24)C3=O)cc(C)c1Cl` [Example 52, (R)-7-(7-chloro-10-(3-(4-chloro-3,5-dimethylphenoxy)propyl)-4-methyl-1-oxo-6-(1,3,5-trimethyl-1H-pyrazol-4-yl)-3,4-dihydropyrazino[1,2-a]indol-2(1H)-yl)-1-methyl-1H-indole-4-carboxylic acid], at Mcl-1, the Ki is less than 1 nM. In experiment [1], the GI50 is 470 nM.
Taken in the same sequence, the figures for `Cc1cc(OCCCc2c3n(c4c(-c5c(C)nn(C)c5C)c(Cl)ccc24)[C@H](C)CN(c2cc(C(=O)O)c4cnn(C)c4c2)C3=O)cc(C)c1Cl` [Example 53, (R)-6-(7-chloro-10-(3-(4-chloro-3,5-dimethylphenoxy)propyl)-4-methyl-1-oxo-6-(1,3,5-trimethyl-1H-pyrazol-4-yl)-3,4-dihydropyrazino[1,2-a]indol-2(1H)-yl)-1-methyl-1H-indazole-4-carboxylic acid] were less than 1 nM and 500 nM.
For the molecule `Cc1cc(OCCCc2c3n(c4c(-c5c(C)nn(C)c5C)c(Cl)ccc24)[C@H](C)CN(c2cccc4c(C(=O)O)n(C)nc24)C3=O)cc(C)c1Cl` [Example 54, (R)-7-(7-chloro-10-(3-(4-chloro-3,5-dimethylphenoxy)propyl)-4-methyl-1-oxo-6-(1,3,5-trimethyl-1H-pyrazol-4-yl)-3,4-dihydropyrazino[1,2-a]indol-2(1H)-yl)-2-methyl-2H-indazole-3-carboxylic acid], the Ki on Mcl-1 is less than 1 nM. Moreover, the GI50 in experiment [1] worked out at 320 nM.
The like results for `Cc1cc(OCCCc2c3n(c4c(-c5c(C)nn(C)c5C)c(Cl)ccc24)[C@H](C)CN(c2cc(C(=O)O)c4cnn(CCN5CCOCC5)c4c2)C3=O)cc(C)c1Cl` [Example 56, (R)-6-(7-chloro-10-(3-(4-chloro-3,5-dimethylphenoxy)propyl)-4-methyl-1-oxo-6-(1,3,5-trimethyl-1H-pyrazol-4-yl)-3,4-dihydropyrazino[1,2-a]indol-2(1H)-yl)-1-(2-morpholinoethyl)-1H-indazole-4-carboxylic acid] were, in that order, less than 1 nM and 810 nM.
Taken in the same sequence, the figures for `Cc1cc(OCCCc2c3n(c4c(-c5c(C)nn(C)c5C)c(Cl)ccc24)[C@H](C)CN(c2cc(C(=O)O)c4cn(CCN5CCOCC5)nc4c2)C3=O)cc(C)c1Cl` [Example 57, (R)-6-(7-chloro-10-(3-(4-chloro-3,5-dimethylphenoxy)propyl)-4-methyl-1-oxo-6-(1,3,5-trimethyl-1H-pyrazol-4-yl)-3,4-dihydropyrazino[1,2-a]indol-2(1H)-yl)-2-(2-morpholinoethyl)-2H-indazole-4-carboxylic acid] were less than 1 nM and 1700 nM.
The like results for `Cc1cc(OCCCc2c3n(c4c(-c5c(C)n[nH]c5C)c(Cl)ccc24)CCCN(c2cc(C(=O)O)c4ccn(C)c4c2)C3=O)cc(C)c1Cl` [Example 58, 6-(8-Chloro-11-(3-(4-chloro-3,5-dimethylphenoxy)propyl)-7-(3,5-dimethyl-1H-pyrazol-4-yl)-1-oxo-4,5-dihydro-1H-[1,4]diazepino[1,2-a]indol-2(3H)-yl)-1-methyl-1H-indole-4-carboxylic acid] were, in that order, less than 1 nM and 3000 nM.
Take `Cc1cc(OCCCc2c3n(c4c(-c5c(C)nn(C)c5C)c(Cl)ccc24)[C@H](C)CN(c2cccc4c(C(=O)O)nn(C)c24)C3=O)cc(C)c1Cl` [Example 59, (R)-7-(7-chloro-10-(3-(4-chloro-3,5-dimethylphenoxy)propyl)-4-methyl-1-oxo-6-(1,3,5-trimethyl-1H-pyrazol-4-yl)-3,4-dihydropyrazino[1,2-a]indol-2(1H)-yl)-1-methyl-1H-indazole-3-carboxylic acid]: the inhibition constant (Ki) on Mcl-1 was less than 1 nM. For the same molecule, the GI50 in experiment [1] came to 280 nM.
